Experimental data published in publication PMC6359144 (International Journal of Molecular Sciences, 2019).
Read-outs that look alike come from different tables or passages of the source.

Columns and labels:
[1] = tested on: HT-29 colon carcinoma cells; assay: MTT assay, HT-29 colon carcinoma cells; type: cell-based, human; conditions: Homo sapiens, MTT
Experimental: (§1) HT-29 (ACC-299), HCT-116 (ACC-581) and DLD-1 (ACC-278) colon carcinoma, MCF-7 (ACC-115) breast carcinoma, KB-V1 (ACC-149), 518A2 (Department of Radiotherapy and Radiobiology, University Hospital Vienna) melanoma and Ea.Hy926 (ATCC no. CRL-2922) HUVEC derived endothelial hybrid cells line were grown in Dulbecco’s Modified Eagle Medium (DMEM; Biochrom), high glucose supplemented with 10% (v/v) fetal bovine serum (FBS; Biochrom.) and 1% (v/v) Antibiotic-Antimycotic solution (anti-anti; Thermo Scientific). HDFa human dermal fibroblasts (ATCC: PCS-201-012™) were grown in DMEM supplemented with 10% FBS, 1% anti-anti and 2 mM glutamine. The cells were incubated at 37 °C, 5% CO2, 95% humidified atmosphere. By repeated addition of topotecan or vinblastine at the maximum tolerated dose to the cell medium of MCF-7 and KB-V1 cells, the cells were rendered multidrug-resistant, indicated as MCF-7^Topo and KB-V1^Vbl, respectively. They were serially passaged following trypsinization by using 0.05% trypsin/0.02% EDTA (Biochrom). Mycoplasma contamination was routinely monitored, and only mycoplasma–free cultures were used.
(§2) MTT [3-(4,5-dimethylthiazol-2-yl)-2,5-diphenyltetrazolium bromide] (ABCR) was used to determine the cytotoxicity of test compounds as previously described. Briefly, HDFa human dermal fibroblasts and Ea.Hy926 endothelial hybrid cells (both 1 × 10^5 cells/mL, 100 µL/well), 518A2 melanoma, KB-V1^Vbl cervix carcinoma, MCF-7^Topo breast carcinoma, HT-29, DLD-1 and HCT-116 colon carcinoma (all 5 × 10^4 cells/mL, 100 µL/well) were grown in 96-well culture plates for 24 h. Then, various concentrations of the test compounds were added and the cells were incubated for 24-72 h at 37 °C. After adding 12.5 µL of a 0.5% MTT solution in PBS (final concentration 0.05%) to cell medium, microplates were incubated for 2 h and subsequently swiftly turned to discard the medium. The precipitate of formazan crystals was then dissolved in a 10% solution of SDS in DMSO containing 0.6% acetic acid. To ensure complete dissolution of formazan, microplates were incubated for at least 4 h at 37 °C. Finally, the absorbance at λ = 570 nm (formazan) and 630 nm (background) was measured using a microplate reader (Tecan F200). All experiments were carried out in quadruplicate and the percentage of viable cells was calculated as the mean ± SD with controls set to 100%. Selected graphs of MTT assays can be found in the Supporting Information (Figure S8).

[2] = tested on: KB-V1^Vbl cervix carcinoma cells; assay: MTT assay, KB-V1^Vbl cervix carcinoma cells; type: cell-based; conditions: Homo sapiens, read-out: IC50 KB-V1^Vbl (72 h)
Experimental: as §1, §2

518A2 melanoma cells [3] = assay: Cell cycle analysis by flow cytometry after PI staining; type: cell-based, human; conditions: 24 h; for cell cycle arresting effect: 518A2 cells, FACS
Experimental: The 518A2 melanoma cells (3 mL/well; 5 × 10^4 cells/mL) were grown on 6-well tissue culture plates for 24 h. After treatment with 4d (150, and 200 nM), 4e (0.8, and 1 µM), 4f (2, and 3 µM), or DMSO (control) for another 24 h, cells were fixed (70% EtOH, 24 h, 4 °C), washed with PBS and incubated with propidium iodide (PI; Carl Roth) staining solution (50 µg/mL PI, 0.1% sodium citrate, 50 µg/mL RNase A in PBS) for 30 min at 37 °C. […] The percentages of cells in the different phases of the cell cycle (G1, S and G2/M phase) were determined using the CXP Analysis software (Beckmann Coulter). The percentage of apoptotic cells was derived from sub-G1 peaks. Data was normally distributed for each group (Shapiro–Wilk test, p > 0.05). Since homogeneity of variance (Levene’s test, p < 0.05) was violated, a correction was calculated for Anova (Welch test).

518A2 melanoma cells [4] = assay: MTT assay, 518A2 melanoma cells; type: cell-based, human; conditions: for IC50: Homo sapiens, MTT, mean ± SD of four experiments
Experimental: as §1, §2

recombinant human HDAC1 = target: T1, recombinant human HDAC1 (Homo sapiens, UniProt Q13547); assay: HDAC1 inhibitor screening assay (fluorometric); type: biochemical; conditions: recombinant human HDAC1, mean ± SD of two experiments; read-out: HDAC inhibition IC50, HDAC1
T1 construct: purchased Cayman Chemicals
Experimental: The HDAC inhibitory potential of the novel compounds was determined by utilizing the deacetylase activity of recombinant human HDAC1 (HDAC1 Inhibitor Screening Assay Kit; Cayman Chemicals) or HDAC6 (HDAC6 Inhibitor Screening Kit (Fluorometric); Biovision) towards the corresponding synthetic acetylated-peptide substrates resulting in the release of a fluorescent product. The assays were performed according to manufacturer’s description of the in commercially available assay kits. […] The IC50 values were derived from dose-response curves and are expressed as the means ± SD of two independent experiments.

[5] = tested on: non-malignant HDFa dermal fibroblasts; assay: MTT assay, HDFa dermal fibroblasts; type: cell-based; conditions: Homo sapiens, read-out: IC50 HDFa (72 h)
Experimental: as §1
MTT [3-(4,5-dimethylthiazol-2-yl)-2,5-diphenyltetrazolium bromide] (ABCR) was used to determine the cytotoxicity of test compounds as previously described. Briefly, HDFa human dermal fibroblasts and Ea.Hy926 endothelial hybrid cells (both 1 × 10^5 cells/mL, 100 µL/well), 518A2 melanoma, KB-V1^Vbl cervix carcinoma, MCF-7^Topo breast carcinoma, HT-29, DLD-1 and HCT-116 colon carcinoma (all 5 × 10^4 cells/mL, 100 µL/well) were grown in 96-well culture plates for 24 h. Then, various concentrations of the test compounds were added and the cells were incubated for 24-72 h at 37 °C. […] Finally, the absorbance at λ = 570 nm (formazan) and 630 nm (background) was measured using a microplate reader (Tecan F200). All experiments were carried out in quadruplicate and the percentage of viable cells was calculated as the mean ± SD with controls set to 100%. […]

[6] = tested on: microtubule cytoskeleton in 518A2 melanoma cells; assay: Immunofluorescence staining of microtubule cytoskeleton, 518A2 cells; type: cell-based, human; conditions: 24 h
Experimental: 518A2 melanoma cells (5 × 10^4 cells/mL, 500 µL/well) or Ea.Hy926 endothelial hybrid cells (7.5 × 10^4 cells/mL, 500 µL/well) were seeded in 24-well plates on small glass coverslips and grown for 24 h. Then, the cells were exposed to the test compounds for 24 h. After washing the cells once with PBS, they were fixed in 3.7% formaldehyde in PBS (20 min, rt), and permeabilized and blocked in 1% BSA and 0.1% triton X-100 in PBS (30 min, rt). Then, the cells were incubated with monoclonal mouse anti-alpha-tubulin antibody (1 h, 37 °C). […] Then, the cells were washed for three times with PBS and once with water. The glass coverslips were mounted in 4-88 based mounting medium supplemented with 1 µg/mL DAPI for counterstaining the nuclei and 2.5% DABCO. Alterations of the microtubule were documented by a Zeiss Imager A1 AX10 fluorescence microscope (400× magnification).

[7] = HT-29, read-out: IC50 HT-29 (72 h), 72 h
[8] = HT-29, 24 h, read-out: IC50 HT-29 (24 h)
[9] = 518A2, read-out: IC50 518A2 (72 h), 72 h
[10] = 518A2, 24 h, read-out: IC50 518A2 (24 h)

T1 sequence (Q13547 whole entry): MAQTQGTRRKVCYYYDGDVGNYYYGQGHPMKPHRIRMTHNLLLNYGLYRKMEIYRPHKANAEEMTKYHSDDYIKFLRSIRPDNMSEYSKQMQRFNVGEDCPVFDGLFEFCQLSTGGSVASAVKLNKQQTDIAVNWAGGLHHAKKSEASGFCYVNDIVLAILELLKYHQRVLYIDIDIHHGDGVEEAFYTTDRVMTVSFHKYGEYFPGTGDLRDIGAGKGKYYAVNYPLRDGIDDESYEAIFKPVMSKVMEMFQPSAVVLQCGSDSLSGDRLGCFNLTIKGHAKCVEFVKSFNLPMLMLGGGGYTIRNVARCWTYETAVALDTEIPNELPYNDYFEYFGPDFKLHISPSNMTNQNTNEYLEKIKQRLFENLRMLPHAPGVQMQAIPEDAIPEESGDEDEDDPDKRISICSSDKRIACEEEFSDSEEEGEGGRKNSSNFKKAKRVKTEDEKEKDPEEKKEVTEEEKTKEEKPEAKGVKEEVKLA

SMILES | IC50 [1, 7] | IC50 [1, 8] | IC50 [2] | cell cycle arresting effect (518A2 melanoma cells [3]) | IC50 (518A2 melanoma cells [4]; [9]) | IC50 (518A2 melanoma cells [4]; [10]) | IC50 (recombinant human HDAC1) | IC50 [5] | further results
COc1ccc(-c2ocnc2-c2cc(Br)c(OC)c(OC)c2)cc1OCCCC(=O)NO [4d, N-Hydroxy-4-[1-methoxy-4-(4’-(3’’-bromo-4’’,5’’-dimethoxyphenyl)oxazol-5’-yl)-2-phenoxy]butanamide] | 1400 ± 200 nM | 1300 ± 300 nM | 480 ± 60 nM | accumulation of 518A2 cells in G2/M phase | 110 ± 10 nM | 710 ± 50 nM | 4000 ± 100 nM | 23900 ± 1600 nM | cells in G1 (518A2 melanoma cells [3]; 0.2 µM): 33.9 ± 3.4%; cells in G2/M (518A2 melanoma cells [3]; 0.2 µM): 35.4 ± 2.4%; cells in S (518A2 melanoma cells [3]; 0.2 µM): 16.3 ± 1.1%; cells in Sub-G1 (518A2 melanoma cells [3]; 0.2 µM): 14.4 ± 2.8%; IC50 after 72 h compared with IC50 after 24 h (518A2 melanoma cells [4]; 518A2 melanoma cells, fold lower): about eight-fold; effect on microtubule cytoskeleton ([6]; 0.5 µM): complete disruption of the microtubule cytoskeleton
COc1ccc(-c2ocnc2-c2cc(Br)c(OC)c(OC)c2)cc1OCCCCC(=O)NO [4e, N-Hydroxy-5-[1-methoxy-4-(4’-(3’’-bromo-4’’,5’’-dimethoxyphenyl)oxazol-5’-yl)-2-phenoxy]pentanamide] | 1900 ± 200 nM | 2100 ± 600 nM | 2000 ± 300 nM | accumulation of 518A2 cells in G2/M phase | 800 ± 70 nM | 2400 ± 300 nM | 3800 ± 100 nM | > 100000 nM | cells in G1 (518A2 melanoma cells [3]; 0.8 µM): 43.1 ± 1.3%; cells in G2/M (518A2 melanoma cells [3]; 0.8 µM): 32.6 ± 1.7%; cells in S (518A2 melanoma cells [3]; 0.8 µM): 19.2 ± 0.7%; cells in Sub-G1 (518A2 melanoma cells [3]; 0.8 µM): 5.1 ± 1.2%; cells in G1 (518A2 melanoma cells [3]; 1 µM): 35.4 ± 1.1%; cells in G2/M (518A2 melanoma cells [3]; 1 µM): 34.9 ± 3.5%; cells in S (518A2 melanoma cells [3]; 1 µM): 19.0 ± 0.3%; cells in Sub-G1 (518A2 melanoma cells [3]; 1 µM): 10.8 ± 4.4%; effect on microtubule cytoskeleton ([6]; […]): eroded the highly organized microtubule network, but left some intact clusters
COc1ccc(-c2ocnc2-c2cc(Br)c(OC)c(OC)c2)cc1OCCCCCC(=O)NO [4f, N-Hydroxy-6-[1-methoxy-4-(4’-(3’’-bromo-4’’,5’’-dimethoxyphenyl)oxazol-5’-yl)-2-phenoxy]hexanamide] | 14200 ± 1600 nM | 6600 ± 600 nM | 7100 ± 200 nM | induced a G1 phase arrest | 6400 ± 400 nM | 7600 ± 200 nM | 490 ± 50 nM | > 50000 nM | cells in G1 (518A2 melanoma cells [3]; 2 µM): 53.9 ± 0.8%; cells in G2/M (518A2 melanoma cells [3]; 2 µM): 22.2 ± 0.5%; cells in S (518A2 melanoma cells [3]; 2 µM): 18.3 ± 0.7%; cells in Sub-G1 (518A2 melanoma cells [3]; 2 µM): 5.6 ± 0.8%; cells in G1 (518A2 melanoma cells [3]; 3 µM): 54.2 ± 0.5%; cells in G2/M (518A2 melanoma cells [3]; 3 µM): 22.5 ± 0.3%; cells in S (518A2 melanoma cells [3]; 3 µM): 16.9 ± 0.6%; cells in Sub-G1 (518A2 melanoma cells [3]; 3 µM): 6.3 ± 0.9%; effect on microtubule cytoskeleton ([6]; 4 µM): did not affect the microtubule cytoskeleton
